Earlier results on two compounds are cited in patent US20210000933A1, “TUMOR VACCINE” (CELL-MEDICINE, INC., priority 2019, published 2021).

Where two headings read alike, the source gives them in different places.

The test system of data set [1] is newly diagnosed glioblastoma. To be noted: bevacizumab used together with the standard therapy.
Where [2] appears, read: 22 brain tumor cases, PDT then standard therapy.
Where [3] appears, read: newly diagnosed glioblastoma cases (13 cases).

In the case of “bevacizumab: antibody drug having a tumor neovascularization inhibitory effect”, in data set [1], the mOS is 15.7 to 16.8 months and the mPFS is recorded as 10.6 to 10.7 months.

Take `C=Cc1c(C)c2cc3nc(c(CC(=O)N[C@@H](CC(=O)O)C(=O)O)c4[nH]c(cc5nc(cc1[nH]2)C(C)=C5CC)c(C)c4C(=O)O)[C@@H](CCC(=O)O)[C@@H]3C` [talaporphin sodium, talaporfin sodium]: the Side reactions entry in the data set with brain tumor (22 brain tumor cases) was “observed for only four cases, and all of them were mild”. In the data set on brain tumor (setting [2]), the “6-month progression-free survival rate” value is 91% and the “12-month postoperative overall survival rate” value was 95.5%. In addition, in the data set on brain tumor (glioblastoma cases), the mOS is 24.8 months and the mPFS is on record as 12.0 months. Further, in the data set with brain tumor (setting [3]), the “6-month progression-free survival rate” value is listed as 100% and the “12-month postoperative overall survival rate” value was 100%.
